Experimental data as given in US6486199B1, “Spiro and dispiro 1,2,4-trioxolane antimalarials” (Medicines for Malaria Venture MMV International Centre …, priority 2001, dated 2002).
Values after ≈ are worked out from the molar mass of the structure shown. Read-outs that look alike come from different tables or passages of the source.

How the values were obtained:
[1] = test system: chloroquine-resistant K1 strain of P. falciparum; assay: in vitro screen against chloroquine-resistant K1 strain of P. falciparum; type: cell-based; conditions: for IC50: Plasmodium falciparum
[2] = test system: ANKA strain of P. Berghei; assay: single dose STI in vivo screen in infected Moro SPF mice; conditions: for antimalarial activity, overall assessment: overall judgement of in vitro and in vivo data of Table 2; for inhibition in vivo at 10 mg/kg: Plasmodium berghei, 72 h; for inhibition in vivo at 10 mg/kg / Activity (%) po / Activity (%) sc: percent reduction in parasitemia day 3 post-infection
Method: In the single dose STI in vivo screen, Moro SPF mice infected with the ANKA strain of P. Berghei (groups of three mice) were treated on day one post-infection with trioxolanes dissolved or suspended in 3% ethanol and 7% Tween 80. […] Antimalarial activity was measured by percent redution in parasitemia on day three post-infection and survival times compared to an untreated control group. Survival to day 30 post-infection is considered to be a cure.

[3] = differential scanning calorimetry (DSC), thermal stability; type: physicochemical; conditions: thermal decomposition
[4] = test system: chloroquine-sensitive NF54 strain of P. falciparum; assay: in vitro screen against chloroquine-sensitive NF54 strain of P. falciparum; type: cell-based; conditions: for IC50: Plasmodium falciparum
P. berghei [5] = assay: 1-day Peters test against P. berghei in vivo; conditions: Plasmodium berghei, 24 h, 1 day, po
P. berghei [6] = assay: 4-day Peters test against P. berghei in vivo; conditions: 4 day, po
[7] = NF54, read-out: IC50 (ng/ml) NF54
[8] = in vitro, K1 strain, read-out: IC50 (ng/ml) K1
[9] = in vitro, K1 and NF54 strains not distinguished, read-out: IC50
[10] = in vitro, NF54 strain, read-out: IC50 (ng/ml) NF54
[11] = single 100 mg/kg po, survival to day 30 = cure
[12] = single 100 mg/kg sc, survival to day 30 = cure

Row | Structure (SMILES) | IC50 ([1]; K1, read-out: IC50 (ng/ml) K1) [ng/mL] | antimalarial activity, overall assessment [2] | Tm dec. (° C.) [3] [°C] | IC50 [4, 7] [ng/mL] | IC50 [1, 8] [ng/mL] | IC50 [4, 10] [ng/mL] | Survival (days) po [2, 11] | Survival (days) sc [2, 12] | Activity (%) po ([2]; single 100 mg/kg po) | Activity (%) sc ([2]; single 100 mg/kg sc) | also measured
1 | C1CCC2(CC1)OOC1(CCC3(CC1)OOC1(CCCCC1)O3)O2 (stereo not shown) [OZ09, 7,12,19,20,23,24-Hexaoxatetraspiro[5.1.2.1.5.2.2.2]tetracosane] | 32 (≈ 0.094 µM) | less active | 196.5 | 39 (≈ 0.115 µM) |  |  |  |  |  |  | 
2 | Cc1ccc(S(=O)(=O)NN=C2CCC3(CC2)OOC2(O3)C3CC4CC(C3)CC2C4)cc1 (stereo not shown) [OZ39, Adamantane-2-spiro-3′-1′,2′,4′-trioxaspiro[4.5]decan-8′-one tosylhydrazone] |  |  | 146.9 |  | 1.4 (≈ 0.00314 µM) | 1.8 (≈ 0.00403 µM) |  |  |  |  | IC50 [1, 9]: < 2 ng/mL; inhibition in vivo at 10 mg/kg ([2]; single 10 mg/kg po, read-out: Activity (%) po): 61%; inhibition in vivo at 10 mg/kg ([2]; single 10 mg/kg sc, read-out: Activity (%) sc): 99.3%
3 | O=C(O)[C@H]1CC[C@@]2(CC1)OOC1(O2)C2CC3CC(C2)CC1C3 (stereo partly drawn) [OZ72, trans-Adamantane-2-spiro-3′-8′-carboxy-1′,2′,4′-trioxaspiro[4.5]decane] |  |  | 161.9 |  |  |  |  |  |  |  | IC50 (ng/ml) K1 ([1]; in vitro, K1 strain): 15 ng/mL (≈ 0.0486 µM); IC50 (ng/ml) NF54 ([4]; in vitro, NF54 strain): 13 ng/mL (≈ 0.0422 µM)
4 | FC1CCCCC12OOC1(CCCCC1)O2 (stereo not shown) [OZ06, 1-Fluoro-7,14,15-trioxadispiro[5.1.5.2]pentadecane] | 18 (≈ 0.0782 µM) | less active |  | 22 (≈ 0.0955 µM) |  |  | 1.0/1.0 days | 1.0/1.0 days |  |  | 
5 | C1CCC2(CC1)OOC1(CCCCC1)O2 [OZ01, 7,14,15-Trioxadispiro[5.1.5.2]pentadecane] | > 100 | less active |  | > 100 |  |  | 5.3/5.3 days | 5.3/5.3 days | 0/0% | 0/0% | 
6 | C[C@@H]1CC[C@H]2[C@@H](C)C(=O)O[C@@H]3O[C@@]4(C)CC[C@@H]1[C@]32OO4 [Artemisinin, artemisinin, reference compound] |  |  |  |  | 1.2 (≈ 0.00425 µM) | 1.9 (≈ 0.00673 µM) | 7.3 days | 14 days | 98% | 100% | Activity (%) po ([2]; single 10 mg/kg po): 65%; Activity (%) sc ([2]; single 10 mg/kg sc): 87%; Survival (days) po ([2]; single 10 mg/kg po): 6.5 days; Survival (days) sc ([2]; single 10 mg/kg sc): 7.0 days; ED50 (P. berghei [5]; read-out: P. berghei (1 day) ED50 po): 9.1 mg/kg; ED90 (P. berghei [5]; read-out: P. berghei (1 day) ED90 po): 14 mg/kg
7 | O=C(NN=C1CCC2(CC1)OOC1(O2)C2CC3CC(C2)CC1C3)Nc1ccccc1 (stereo not shown) [OZ30, Adamantane-2-spiro-3′-1′,2′,4′-trioxaspiro[4.5]decan-8′-one 4-phenylsemicarbazone] | 0.65 (≈ 0.00158 µM) |  | 174.8 | 1.3 (≈ 0.00316 µM) |  |  |  |  |  |  | IC50 [1, 9]: < 5 ng/mL; P. berghei (4 day) ED90 po (P. berghei [6]): <10/>10 mg/kg; ED50 (P. berghei [6]; Plasmodium berghei, 96 h, read-out: P. berghei (4 day) ED50 po): < 10 mg/kg
8 | Fc1ccc(C2(c3ccc(F)cc3)OOC3(CCC(c4ccccc4)CC3)O2)cc1 (stereo not shown) [OZ66, 3,3-Bis(4-fluorophenyl)-8-phenyl-1,2,4-trioxaspiro[4.5]decane] |  | completely inactive | 198.5 |  | 44 (≈ 0.108 µM) | 36 (≈ 0.0881 µM) |  |  |  |  | Activity (%) po ([2]; single 10 mg/kg po): 0/0%; Activity (%) sc ([2]; single 10 mg/kg sc): 0/0%
9 | O=C1CCC2(CC1)OOC1(CCCCC1)O2 [OZ02, 3-Oxo-7,14,15-trioxadispiro[5.1.5.2]pentadecane] |  | less active | 193.3 |  | > 100 | 94 (≈ 0.415 µM) | 5.0/5.0 days | 5.0/5.0 days | 0/0% | 0/0% | 
10 | c1ccc2c(c1)CCCC21OOC2(O1)C1CC3CC(C1)CC2C3 (stereo not shown) [OZ84, Adamantane-2-spiro-3′-1′,2′,4′-trioxolane-5′-spiro-1″-3″,4″-dihydro-2″H-naphthalene] |  |  | 164.5 |  |  |  |  |  |  |  | in vitro potency ([1]; in vitro, strains not distinguished): very active; in vivo activity ([2]; 10 mg/kg po/sc data of Table 2): good; IC50 (ng/ml) NF54 ([4]; in vitro, NF54 strain): /1.9 ng/ml
